How the values were obtained:
Axl = biological target: T1, Axl (Homo sapiens, UniProt P30530); assay: Phospho-AKT HTRF, HUVEC, Axl ABX-L, 8 pt; assay type: cell-based; conditions: HUVEC cells, pAkt(Ser473) HTRF, Axl ABX-L stimulation
T1 construct: Seed HUVECs (10K cells/well) in EBM-2 complete media; host or cells: HUVEC
T1 sequence (P30530 26-894): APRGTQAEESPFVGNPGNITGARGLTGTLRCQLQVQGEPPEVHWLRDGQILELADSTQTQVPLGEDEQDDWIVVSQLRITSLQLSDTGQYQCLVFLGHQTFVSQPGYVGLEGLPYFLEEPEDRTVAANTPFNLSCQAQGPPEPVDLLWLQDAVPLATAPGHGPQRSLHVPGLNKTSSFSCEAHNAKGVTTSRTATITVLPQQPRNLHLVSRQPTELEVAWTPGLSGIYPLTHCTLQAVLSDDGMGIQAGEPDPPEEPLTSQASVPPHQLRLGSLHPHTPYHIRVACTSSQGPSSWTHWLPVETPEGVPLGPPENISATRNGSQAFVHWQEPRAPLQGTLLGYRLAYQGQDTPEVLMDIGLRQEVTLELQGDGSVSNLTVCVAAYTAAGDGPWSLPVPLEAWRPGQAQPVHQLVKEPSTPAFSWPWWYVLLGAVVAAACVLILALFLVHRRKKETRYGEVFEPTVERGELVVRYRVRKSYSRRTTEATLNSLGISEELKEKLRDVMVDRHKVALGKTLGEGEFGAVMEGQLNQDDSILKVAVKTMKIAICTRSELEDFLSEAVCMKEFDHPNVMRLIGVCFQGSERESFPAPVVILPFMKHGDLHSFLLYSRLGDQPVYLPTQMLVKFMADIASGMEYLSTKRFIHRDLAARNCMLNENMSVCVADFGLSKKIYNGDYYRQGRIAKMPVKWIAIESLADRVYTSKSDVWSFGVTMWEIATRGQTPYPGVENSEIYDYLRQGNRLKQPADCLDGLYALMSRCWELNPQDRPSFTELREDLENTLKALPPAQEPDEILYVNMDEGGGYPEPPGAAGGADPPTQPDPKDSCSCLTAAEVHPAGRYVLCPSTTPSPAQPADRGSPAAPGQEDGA
Method: [The source words this procedure for another target and reports this target under the same test.] (§1) Example 13: PAKT HTRF-HUVEC Assay
(§2) Seed HUVECs (10K cells/well) in EBM-2 complete media (EBM-2 basal medium plus EGM-2 BulletKit supplements) overnight at 37° C., 5% CO2 in Costar 96-well white clear-bottom plates. Remove culture media and starve cells for 3-4 hours in 50 μL/well EBM-2 basal medium. Perform serial dilution of compounds in DMSO from 2.5 mM in 4-fold dilutions, and then dilute 1:125 in EBM-2 basal media. Mix 50 μL/well 2× compounds with 50 μL/well HUVECs in duplicate in Costar 96-well white clear-bottom plates. Incubate plates for 1 hour at 37° C., 5% CO2. Cross-link anti-human MerTK antibody to Biotin-SP-conjugated anti-mouse IgG antibody (1:1) to give final concentrations of 5 μg/mL of anti-human MerTK-XL. Stimulate HUVECs with 25 μL/well 5× anti-human MerTK-XL to give final concentrations of 1 ug/mL for 10 minutes at 37° C., 5% CO2. Completely remove media and lyse HUVECs with 40 uL:WELL per well of Cisbio HTRF 1× lysis buffer. Performed pAkt(Ser473) HTRF assay in ProxiPlate-384 Plus, white 384-shallow well microplate according to the vendor protocol and read plates with a SpectralMax Paradigm plate reader. Enter the HTRF values into Athena (Rigel) for curve fitting, EC50 calculation, and database storage.

MerTK = biological target: T2, MerTK (Homo sapiens, UniProt Q12866); assay: Phospho-AKT HTRF, HUVEC, Mer-XL, 8 pt (pAKT HTRF-HUVEC assay, anti-human MerTK-XL stimulation); assay type: cell-based; conditions: HUVEC cells, pAkt(Ser473) HTRF, anti-human MerTK-XL stimulation 1 ug/mL 10 minutes
T2 construct: Seed HUVECs (10K cells/well) in EBM-2 complete media; host or cells: HUVEC
T2 sequence (Q12866 21-999): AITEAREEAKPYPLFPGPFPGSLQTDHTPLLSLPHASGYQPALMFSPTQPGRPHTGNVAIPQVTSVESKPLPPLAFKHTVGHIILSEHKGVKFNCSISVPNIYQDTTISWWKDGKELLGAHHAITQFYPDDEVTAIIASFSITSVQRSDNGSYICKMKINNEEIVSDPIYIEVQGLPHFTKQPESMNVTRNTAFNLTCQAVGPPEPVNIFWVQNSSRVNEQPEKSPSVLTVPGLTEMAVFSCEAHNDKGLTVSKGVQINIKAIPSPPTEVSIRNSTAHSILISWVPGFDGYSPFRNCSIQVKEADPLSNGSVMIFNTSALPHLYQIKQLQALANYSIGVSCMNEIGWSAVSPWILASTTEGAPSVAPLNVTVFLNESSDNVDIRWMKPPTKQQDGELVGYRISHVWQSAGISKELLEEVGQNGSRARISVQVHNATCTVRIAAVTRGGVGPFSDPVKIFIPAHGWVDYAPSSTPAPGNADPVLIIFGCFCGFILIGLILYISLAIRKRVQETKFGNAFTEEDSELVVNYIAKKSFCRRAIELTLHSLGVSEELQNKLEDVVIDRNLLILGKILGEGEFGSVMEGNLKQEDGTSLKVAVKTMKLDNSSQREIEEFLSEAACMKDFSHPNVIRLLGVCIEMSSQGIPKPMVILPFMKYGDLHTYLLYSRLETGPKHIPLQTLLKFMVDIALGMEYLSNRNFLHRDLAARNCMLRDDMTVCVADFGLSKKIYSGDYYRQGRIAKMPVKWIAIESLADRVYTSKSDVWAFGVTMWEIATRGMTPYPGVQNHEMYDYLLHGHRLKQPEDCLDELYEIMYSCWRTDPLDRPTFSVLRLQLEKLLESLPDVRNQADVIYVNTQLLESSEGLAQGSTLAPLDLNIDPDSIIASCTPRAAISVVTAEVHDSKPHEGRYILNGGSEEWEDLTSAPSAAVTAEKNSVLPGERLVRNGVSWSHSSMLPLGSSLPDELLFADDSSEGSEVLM
Method: as §1, §2

Structure (SMILES)	EC50 (Axl)	EC50 (MerTK)
COc1cc2c(Oc3ccc(NC(=O)c4cc(N5CCN(C)CC5)ccn4)nc3)ccnc2cc1OCCCN1CCOCC1 [Compound 1, N-(5-((6-Methoxy-7-(3-morpholinopropoxy)quinolin-4-yl)oxy)pyridin-2-yl)-4-(4-methylpiperazin-1-yl)picolinamide]	403 nM	421 nM
COc1cc2c(Oc3ccc(NC(=O)c4cc(-c5ccccc5)c5c(n4)C4CCN5CC4)nc3)ccnc2cc1OCCCN1CCOCC1 [Compound 2, N-(5-((6-Methoxy-7-(3-morpholinopropoxy)quinolin-4-yl)oxy)pyridin-2-yl)-8-phenyl-3,4-dihydro-2H-1,4-ethano-1,5-naphthyridine-6-carboxamide]	40.8 nM	47 nM
COc1cc2c(Oc3ccc(NC(=O)c4cc(-c5ccccc5)ccn4)nc3)ccnc2cc1OCCCN1CCOCC1 [Compound 3, N-(5-((6-Methoxy-7-(3-morpholinopropoxy)quinolin-4-yl)oxy)pyridin-2-yl)-4-phenylpicolinamide]	162 nM	98.7 nM
COc1cc2c(Oc3ccc(NC(=O)c4nccc(-c5ccccc5)n4)nc3)ccnc2cc1OCCCN1CCOCC1 [Compound 4, N-(5-((6-Methoxy-7-(3-morpholinopropoxy)quinolin-4-yl)oxy)pyridin-2-yl)-4-phenylpyrimidine-2-carboxamide]	5 nM	3.9 nM
COc1cc2c(Oc3ccc(NC(=O)c4nc(-c5ccccc5)c5ccccc5n4)nc3)ccnc2cc1OCCCN1CCOCC1 [Compound 5, N-(5-((6-Methoxy-7-(3-morpholinopropoxy)quinolin-4-yl)oxy)pyridin-2-yl)-4-phenylquinazoline-2-carboxamide]	1.4 nM	2.2 nM
COc1cc2c(Oc3ccc(NC(=O)c4nc(-c5ccccc5)c5c(n4)C4CCN5CC4)nc3)ccnc2cc1OCCCN1CCOCC1 [Compound 6, N-(5-((6-methoxy-7-(3-morpholinopropoxy)quinolin-4-yl)oxy)pyridin-2-yl)-4-phenyl-7,8-dihydro-6H-5,8-ethanopyrido[3,2-d]pyrimidine-2-carboxamide, hydrochloric acid]	3.3 nM	2.5 nM
COc1cc2c(Oc3ccc(NC(=O)c4cc(-c5ccccc5)c5c(n4)C4CCN5CC4)nc3)ccnc2cc1OCCCN1CCOCC1 [Compound 7, N-(5-((6-Methoxy-7-(3-morpholinopropoxy)quinolin-4-yl)oxy)pyridin-2-yl)-8-phenyl-3,4-dihydro-2H-1,4-ethano-1,5-naphthyridine-6-carboxamide, hydrochloric acid]	18.2 nM	10 nM
COc1cc2c(Oc3ccc(NC(=O)c4cc(N5CCC(O)CC5)ccn4)nc3)ccnc2cc1OCCCN1CCOCC1 [Compound 8, 4-(4-Hydroxypiperidin-1-yl)-N-(5-((6-methoxy-7-(3-morpholino-propoxy)quinolin-4-yl)oxy)pyridin-2-yl)picolinamide, trifluoroacetic acid]	228 nM	90.9 nM
COc1cc2c(Oc3ccc(NC(=O)c4nc5ccccc5c(=O)[nH]4)nc3)ccnc2cc1OCCCN1CCOCC1 [Compound 9, N-(5-((6-Methoxy-7-(3-morpholinopropoxy)quinolin-4-yl)oxy)pyridin-2-yl)-4-oxo-3,4-dihydroquinazoline-2-carboxamide, trifluoroacetic acid]	71.7 nM	42.7 nM
COc1cc2c(Oc3ccc(NC(=O)c4cccc(-c5ccccc5)n4)nc3)ccnc2cc1OCCCN1CCOCC1 [Compound 10, N-(5-((6-Methoxy-7-(3-morpholinopropoxy)quinolin-4-yl)oxy)pyridin-2-yl)-6-phenylpicolinamide]	12.9 nM	4.9 nM
COc1cc2c(Oc3ccc(NC(=O)c4cc(N5CCC(O)CC5)ccn4)nc3)ccnc2cc1OCCCN1CCOCC1 [Compound 11, 4-(4-Hydroxypiperidin-1-yl)-N-(5-((6-methoxy-7-(3-morpholino-propoxy)quinolin-4-yl)oxy)pyridin-2-yl)picolinamide]	197 nM	86 nM
COc1cc2c(Oc3ccc(NC(=O)c4nc5ccccc5c(=O)[nH]4)nc3)ccnc2cc1OCCCN1CCOCC1 [Compound 12, N-(5-((6-Methoxy-7-(3-morpholinopropoxy)quinolin-4-yl)oxy)pyridin-2-yl)-4-oxo-3,4-dihydroquinazoline-2-carboxamide]	99.4 nM	72.1 nM
COc1cc2c(Oc3ccc(NC(=O)c4cc(N5CCCCC5)ccn4)nc3)ccnc2cc1OCCCN1CCOCC1 [Compound 13, N-(5-((6-methoxy-7-(3-morpholinopropoxy)quinolin-4-yl)oxy)pyridin-2-yl)-4-(piperidin-1-yl)picolinamide]	53.8 nM	20.2 nM
COc1cc2c(Oc3ccc(NC(=O)c4cc(N5CCOCC5)ccn4)nc3)ccnc2cc1OCCCN1CCOCC1 [Compound 14, N-(5-((6-methoxy-7-(3-morpholinopropoxy)quinolin-4-yl)oxy)pyridin-2-yl)-4-morpholinopicolinamide]	805 nM	430 nM
CCOC1CCN(c2ccnc(C(=O)Nc3ccc(Oc4ccnc5cc(OCCCN6CCOCC6)c(OC)cc45)cn3)c2)CC1 [Compound 15, 4-(4-ethoxypiperidin-1-yl)-N-(5-((6-methoxy-7-(3-morpholinopropoxy)quinolin-4-yl)oxy)pyridin-2-yl)picolinamide]	257 nM	204 nM
COc1cc2c(Oc3ccc(NC(=O)c4cc(N5CCCC5)ccn4)nc3)ccnc2cc1OCCCN1CCOCC1 [Compound 16, N-(5-((6-methoxy-7-(3-morpholinopropoxy)quinolin-4-yl)oxy)pyridin-2-yl)-4-(pyrrolidin-1-yl)picolinamide]	43.2 nM	27.9 nM
COc1cc2c(Oc3ccc(NC(=O)c4cc(N5CCC(c6ccccc6)CC5)ccn4)nc3)ccnc2cc1OCCCN1CCOCC1 [Compound 17, N-(5-((6-methoxy-7-(3-morpholinopropoxy)quinolin-4-yl)oxy)pyridin-2-yl)-4-(4-phenylpiperidin-1-yl)picolinamide]	1370 nM	1640 nM

— patent US10851093B2, “Tyrosine kinase inhibitors” (Rigel Pharmaceuticals, Inc., priority 2018, dated 2020)
